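A five-concentration, 48-hour dose response in 96-well plates underlies each endpoint, interpolated linearly between surrounding concentrations. TGI marks complete inhibition of growth.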
How the values were obtained:
Test in all cases: NCI tumour cell line growth inhibition, 48 h
[1] = test system: 786-0 renal
[2] = test system: A498 renal
[3] = test system: A549 NSCLC
[4] = test system: ACHN renal
[5] = test system: BT-549 breast
[6] = test system: CAKI-1 renal
[7] = test system: CCRF-CEM leukemia
[8] = test system: COLO 205 colon
[9] = test system: DU-145 prostate
[10] = test system: EKVX NSCLC
[11] = test system: HCC-2998 colon
[12] = test system: HCT-116 colon
[13] = test system: HCT-15 colon
[14] = test system: HL-60(TB) leukemia
[15] = test system: HOP-62 NSCLC
[16] = test system: HOP-92 NSCLC
[17] = test system: HS 578T breast
[18] = test system: HT29 colon
[19] = test system: IGROV1 ovarian
[20] = test system: K-562 leukemia
[21] = test system: KM12 colon
[22] = test system: LOX IMVI melanoma
[23] = test system: M14 melanoma
[24] = test system: MALME-3M melanoma
[25] = test system: MCF7 breast
[26] = test system: MDA-MB-231 breast
[27] = test system: MDA-MB-435
[28] = test system: MDA-N
[29] = test system: MOLT-4 leukemia
[30] = test system: NCI-H226 lung
[31] = test system: NCI-H23 lung
[32] = test system: NCI-H460 lung
[33] = test system: NCI-H522 lung
[34] = test system: NCI/ADR-RES ovarian
[35] = test system: OVCAR-3 ovarian
[36] = test system: OVCAR-4 ovarian
[37] = test system: OVCAR-5 ovarian
[38] = test system: OVCAR-8 ovarian
[39] = test system: PC-3 prostate
[40] = test system: RPMI-8226 leukemia
[41] = test system: RXF 393 renal
[42] = test system: SF-268 CNS
[43] = test system: SF-295 CNS
[44] = test system: SF-539 CNS
[45] = test system: SK-MEL-2 melanoma
[46] = test system: SK-MEL-28 melanoma
[47] = test system: SK-MEL-5 melanoma
[48] = test system: SK-OV-3 ovarian
[49] = test system: SN12C renal
[50] = test system: SNB-19 CNS
[51] = test system: SNB-75 CNS
[52] = test system: SR leukemia
[53] = test system: SW-620 colon
[54] = test system: T-47D breast
[55] = test system: TK-10 renal
[56] = test system: U251 CNS
[57] = test system: UACC-257 melanoma
[58] = test system: UACC-62 melanoma
[59] = test system: UO-31 renal

Measured: TGI

COc1cccc(NC(=O)CC(=O)N2N=C(C)C(N=Nc3ccc(S(=O)(=O)c4ccc(N=NC5C(=O)N(C(=O)CC(=O)Nc6cccc(OC)c6)N=C5C)cc4)cc3)C2=O)c1 (centres undefined)
> 100 µM: all assays above

Reference: PubChem BioAssay (NCI)
